# Measurements: ChEMBL document CHEMBL1133302, “Use of proline bioisosteres in potential HIV protease inhibitors: phenylalanine-2-thiophenoxy-3-pyrrolidinone: synthesis and anti-HIV evaluation” (Bioorg Med Chem Lett, 2000)
# pEC50, pIC50: −log10 of the molar value.
# How the values were obtained:
# [1] = target: T1, Human immunodeficiency virus type 1 protease (Human immunodeficiency virus 1, UniProt Q72874); experiment: Compound was evaluated for the inhibition of HIV-1 protease
# MT4 [2] = experiment: CC50 value was measured as concentration required to cause 50% death of uninfected MT-4 cells.; format: functional; settings: Homo sapiens
# MT4 [3] = experiment: EC50 value was measured as concentration required to inhibit syncytia formation by 50% in MT-4 cells; NA-Nonactive at nontoxic concentration; format: functional, cell-based, Homo sapiens
# MT4 [4] = experiment: EC50 value was measured as concentration required to inhibit syncytia formation by 50% in MT-4 cells.; format: functional, cell-based; settings: Homo sapiens
# [5] = Selective index is the ratio of CC50 to that of EC50 (CC50/EC50); format: functional
# [6] = target: T1, Human immunodeficiency virus type 1 protease; experiment: Compound was evaluated for the inhibition of HIV-1 protease; NA-Nonactive at nontoxic concentration
SMILES,pIC50 [1],CC50 (MT4 [2]),EC50 (MT4 [3]),pEC50 (MT4 [4]),SI [5],IC50 [6]
COc1ccc(C[C@H](NC(=O)OC(C)(C)C)C(=O)N2CCC(=O)[C@H]2Sc2ccccc2)cc1,5.00,50 µM,Not Active,,,
CC(C)(C)OC(=O)N[C@@H](Cc1ccc(O)cc1)C(=O)N1CCC(=O)[C@@H]1Sc1ccccc1,7.60,> 100 µM,,4.30,> 2,
COc1ccc(C[C@H](NC(=O)OC(C)(C)C)C(=O)N2CCC(=O)[C@@H]2Sc2ccccc2)cc1,5.00,> 100 µM,Not Active,,,
CC(C)(C)OC(=O)N[C@@H](Cc1ccc(OCc2ccccc2)cc1)C(=O)N1CCC(=O)[C@@H]1Sc1ccccc1,7.70,10 µM,Not Active,,,
CC(C)(C)OC(=O)N[C@@H](Cc1ccc(OCc2ccccc2)cc1)C(=O)N1CCC(=O)[C@H]1Sc1ccccc1,7.70,50 µM,,7.00,500,
O=C(N[C@@H](Cc1ccccc1)C(=O)N1CCC(=O)C1Sc1ccccc1)c1ccc2ccccc2n1 (some centres undefined),5.30,50 µM,Not Active,,,
CC(C)(C)OC(=O)N[C@@H](Cc1ccccc1)C(=O)N1CCC(=O)[C@H]1Sc1ccccc1,8.10,> 100 µM,,6.00,> 100,
CC(C)(C)OC(=O)N[C@@H](Cc1ccc(O)cc1)C(=O)N1CCC(=O)[C@H]1Sc1ccccc1,7.59,50 µM,,7.00,500,
CC(C)(C)OC(=O)NC(Cc1ccccc1)C(=O)N1CCC(=O)C1Sc1ccccc1 (racemic),,> 100 µM,Not Active,,,Not Active
CC(C)(C)OC(=O)N[C@@H](Cc1ccccc1)C(=O)N1CCC(=O)[C@@H]1Sc1ccccc1,6.00,100 µM,,4.30,2,
O=C(N[C@@H](Cc1ccccc1)C(=O)N1CCC(=O)C1Sc1ccccc1)c1cccnc1 (some centres undefined),7.00,50 µM,,6.00,50,
